In brackets after ≈: the same amount, converted by molar mass. Where two headings read alike, the source gives them in different places. Where a SMILES comes first, the peptide text is derived from it.
Assays:
293T human cell line = assay: Mammalian cell cytotoxicity (CellTiter Glo); type: cell-based
Experimental: On day one, cells from an established 293T human cell line were seeded onto 96-well flat-bottom white plates (10,000 293T cells/well). On day two, dilution plates were prepared by diluting compound in cell growth medium to two times the final starting concentration and then carrying out serial two-fold dilutions across the plate. Medium from the cell growth assay plates was then aspirated, and 50 μl from the compound dilution plates were transferred to the assay plates. Fifty microliters of fresh media were then added to all the wells. The plates were incubated at 37°C, 5% CO2 for three days. […]. Media from the assay plates was aspirated, and 100 μl of CellTiter Glo/growth media mix was added to all wells. After five minutes, luminescence was read, and% inhibition vs. compound concentration was plotted.

P. aeruginosa ATCC 27853 [1] = type: cell-based, Pseudomonas aeruginosa
Experimental: (§1) All plates were placed at 37°C overnight.

P. aeruginosa ATCC 39324 = type: cell-based, Pseudomonas aeruginosa
Experimental: as §1

P. aeruginosa ATCC 27853 [2] = assay: Synergy with antibiotics (MIC); type: cell-based, Pseudomonas aeruginosa; conditions: for MIC of the antibiotic alone: P. aeruginosa ATCC 27853; for MIC of the antibiotic in the presence of VSX-1: increasing amounts of VSX-1 (from 0.015 to 4 μg/mL), Fig 4 legend says P297
Experimental: as §1

S. aureus 29213 = conditions: 29213, 18 h
Experimental: MICs and a killing assay were performed in this study. MICs were determined according to CLSI guidelines, using 2-fold serial compound dilutions in 96-well microtiter plates. Briefly, compounds were diluted in water across a mother plate and then 2 μl were stamped to assay plates—one plate for each strain to be tested. Bacterial strains were sub-cultured overnight on agar plates at 37°C. […] These concentrated cultures were diluted 1:200 in growth media to approximately 5 x 10^5 cells/ml. All assay plates received 100 μL diluted culture per well. All plates were placed at 37°C overnight. […] Wells at and above the MIC should appear devoid of growth when visualized.

[3] = 293T cells, 10,000 cells/well, three days, 37°C, CellTiter Glo luminescence
[4] = CLSI microdilution, 2-fold dilutions, ~5 x 10^5 cells/ml, 37°C, 18 hours, MIC = at least 80% growth inhibition

## CC[C@H](C)[C@H](NC(=O)[C@@H](NC(=O)[C@H](CCCNC(=N)N)NC(=O)[C@@H]1CCCN1C(=O)[C@H](CCCCN)NC(=O)[C@H](CCCCN)NC(=O)[C@H](Cc1ccccc1)NC(=O)[C@H](Cc1ccccc1)NC(=O)[C@H](CCCCN)NC(=O)[C@H](CCCCN)NC(=O)[C@H](C)NC(=O)[C@H](CCCNC(=N)N)NC(=O)[C@H](CCCCN)NC(=O)[C@H](CCCCN)NC(=O)[C@@H](NC(=O)[C@H](CO)NC(=O)[C@H](CC(N)=O)NC(=O)[C@H](CCCCN)NC(=O)[C@H](CC(C)C)NC(=O)[C@H](CCCCN)NC(=O)[C@H](CCCCN)NC(=O)[C@H](Cc1ccccc1)NC(=O)[C@H](Cc1ccccc1)NC(=O)[C@H](CCCCN)NC(=O)[C@H](CCCCN)NC(=O)[C@H](Cc1ccccc1)NC(=O)[C@H](CCCNC(=N)N)NC(=O)[C@H](CCCCN)NC(=O)CNC(=O)CNC(=O)CN)C(C)C)C(C)C)C(=O)NCC(=O)N[C@H](C(=O)N[C@@H](CO)C(=O)N[C@H](C(=O)N1CCC[C@H]1C(=O)N[C@@H](Cc1ccccc1)C(=O)O)[C@@H](C)CC)C(C)C [P296] (H-GGGKRFKKFFKKLKNSVKKRAKKFFKKPRVIGVSIPF-OH)
293T human cell line; [3]
  Cytotox CC50: 400 µg/mL
P. aeruginosa ATCC 27853 [1]; CLSI microdilution, 2-fold dilutions, ~5 x 10^5 cells/ml, 37°C, 18 hours, MIC = lowest concentration inhibiting growth by at least 80%
  MIC P. aeruginosa ATCC 27853: 4 µg/mL (≈ 0.925 µM)
P. aeruginosa ATCC 39324; [4]
  MIC P. aeruginosa ATCC 39324: 2 µg/mL (≈ 0.462 µM)

## NC[C@H]1O[C@H](O[C@H]2[C@H](O)[C@@H](O[C@H]3O[C@H](CO)[C@@H](O)[C@H](N)[C@H]3O)[C@H](N)C[C@@H]2N)[C@H](N)C[C@@H]1O [tobramycin]
P. aeruginosa ATCC 27853 [2]; Fig 4 legend
  synergy: MIC of the antibiotic in the presence of P297: did not exhibit an enhanced MIC

## CC[C@H](C)[C@H](NC(=O)[C@H](CCCCN)NC(=O)[C@H](CCCNC(=N)N)NC(=O)CNC(=O)[C@H](CC(C)C)NC(=O)[C@H](CCCNC(=N)N)NC(=O)[C@H](CCCNC(=N)N)NC(=O)[C@H](CC(C)C)NC(=O)CNC(=O)[C@H](CCCNC(=N)N)NC(=O)CNC(=O)CNC(=O)CN)C(=O)N[C@@H](C)C(=O)N[C@@H](Cc1c[nH]cn1)C(=O)NCC(=O)N[C@H](C(=O)N[C@@H](CCCCN)C(=O)N[C@@H](CCCCN)C(=O)N[C@@H](Cc1ccc(O)cc1)C(=O)NCC(=O)N1CCC[C@H]1C(=O)N[C@H](C(=O)N[C@H](C(=O)N[C@@H](CC(C)C)C(=O)N[C@@H](CCCNC(=N)N)C(=O)N[C@H](C(=O)N[C@H](C(=O)N[C@@H](CCCCN)C(=O)N[C@@H](CCCCN)C(=O)N[C@@H](Cc1ccc(O)cc1)C(=O)NCC(=O)O)[C@@H](C)CC)[C@@H](C)CC)C(C)C)[C@@H](C)O)C(C)C [P294] (H-GGGRGLRRLGRKIAHGVKKYGPTVLRIIKKYG-OH)
P. aeruginosa ATCC 39324; ATCC 39324, 18 h
  MIC P. aeruginosa ATCC 39324: 2 µg/mL (≈ 0.57 µM)

## C[C@@H](O)[C@H]1C(=O)N2C(C(=O)O)=C(S[C@@H]3CN[C@H](C(=O)N(C)C)C3)[C@H](C)[C@H]12 [meropenem]
P. aeruginosa ATCC 27853 [2]
  MIC of the antibiotic alone: 0.5 µg/mL
  MIC of the antibiotic in the presence of VSX-1: < 0.1 µg/mL

## CC[C@H](C)[C@H](NC(=O)[C@@H](NC(=O)[C@@H]1CCCN1C(=O)[C@H](CO)NC(=O)[C@H](CC(C)C)NC(=O)[C@H](CCCCN)NC(=O)[C@H](CCCCN)NC(=O)[C@H](Cc1ccccc1)NC(=O)[C@H](CC(C)C)NC(=O)[C@H](CCCCN)NC(=O)[C@H](CCCCN)NC(=O)[C@H](Cc1ccccc1)NC(=O)[C@H](CCCCN)NC(=O)[C@H](CCCCN)NC(=O)[C@H](CCCNC(=N)N)NC(=O)[C@H](Cc1ccccc1)NC(=O)[C@H](CCCNC(=N)N)NC(=O)[C@H](CCCCN)NC(=O)[C@H](Cc1ccccc1)NC(=O)[C@H](CCCNC(=N)N)NC(=O)CNC(=O)CNC(=O)CNC(=O)CN)C(C)C)C(=O)N1CCC[C@H]1C(=O)N[C@@H](CC(C)C)C(=O)N[C@@H](CC(C)C)C(=O)N[C@@H](Cc1c[nH]cn1)C(=O)N[C@@H](CC(C)C)C(=O)NCC(=O)O [P267] (H-GGGGRFKRFRKKFKKLFKKLSPVIPLLHLG-OH)
P. aeruginosa ATCC 27853 [1]; ATCC 27853, 18 h
  MIC P. aeruginosa ATCC 27853: 4 µg/mL (≈ 1.16 µM)
P. aeruginosa ATCC 39324; ATCC 39324, 18 h
  MIC P. aeruginosa ATCC 39324: 4 µg/mL (≈ 1.16 µM)
S. aureus 29213
  MIC S. aureus 29213: 16 µg/mL (≈ 4.63 µM)

## CC[C@H](C)[C@H](NC(=O)[C@H](CCCCN)NC(=O)[C@H](CCCCN)NC(=O)[C@H](CC(C)C)NC(=O)[C@H](CCCCN)NC(=O)[C@H](CCC(=O)O)NC(=O)[C@H](CCCCN)NC(=O)[C@@H](NC(=O)[C@H](CCCCN)NC(=O)[C@H](CC(N)=O)NC(=O)[C@H](CCCNC(=N)N)NC(=O)[C@H](Cc1ccccc1)NC(=O)[C@H](CCCCN)NC(=O)[C@H](CCCNC(=N)N)NC(=O)[C@H](CC(C)C)NC(=O)[C@H](CCCNC(=N)N)NC(=O)[C@H](CCCCN)NC(=O)[C@H](CCCNC(=N)N)NC(=O)[C@H](CC(C)C)NC(=O)CNC(=O)CNC(=O)CNC(=O)CN)[C@@H](C)CC)C(=O)NCC(=O)N[C@@H](CCC(N)=O)C(=O)N[C@@H](CCCCN)C(=O)N[C@H](C(=O)N[C@@H](CCC(N)=O)C(=O)NCC(=O)N[C@@H](CC(C)C)C(=O)N[C@@H](CC(C)C)C(=O)N1CCC[C@H]1C(=O)N[C@@H](CCCCN)C(=O)N[C@@H](CC(C)C)C(=O)N[C@@H](C)C(=O)O)[C@@H](C)CC [P271] (H-GGGGLRKRLRKFRNKIKEKLKKIGQKIQGLLPKLA-OH)
293T human cell line; [3]
  Cytotox CC50: 250 µg/mL
P. aeruginosa ATCC 39324; [4]
  MIC P. aeruginosa ATCC 39324: 8 µg/mL (≈ 2.01 µM)

## colistin
P. aeruginosa ATCC 27853 [2]
  MIC of the antibiotic alone: ~ 1 μg/ml
  MIC of the antibiotic in the presence of VSX-1: < 0.1 µg/mL

## CC[C@H](C)[C@H](NC(=O)[C@@H](NC(=O)[C@@H]1CCCN1C(=O)[C@H](CO)NC(=O)[C@H](CC(C)C)NC(=O)[C@H](CCCCN)NC(=O)[C@H](CCCCN)NC(=O)[C@H](Cc1ccccc1)NC(=O)[C@H](CC(C)C)NC(=O)[C@H](CCCCN)NC(=O)[C@H](CCCCN)NC(=O)[C@H](Cc1ccccc1)NC(=O)[C@H](CCCCN)NC(=O)[C@H](CCCCN)NC(=O)[C@H](CCCNC(=N)N)NC(=O)[C@H](Cc1ccccc1)NC(=O)[C@H](CCCNC(=N)N)NC(=O)[C@H](CCCCN)NC(=O)[C@H](Cc1ccccc1)NC(=O)[C@H](CCCNC(=N)N)NC(=O)CNC(=O)CNC(=O)CNC(=O)CN)C(C)C)C(=O)N1CCC[C@H]1C(=O)N[C@@H](CC(C)C)C(=O)N[C@@H](CC(C)C)C(=O)N[C@@H](Cc1c[nH]cn1)C(=O)N[C@@H](CC(C)C)C(=O)NCC(=O)O [P295] (H-GGGGRFKRFRKKFKKLFKKLSPVIPLLHLG-OH)
293T human cell line
  Cytotox CC50: 95 µg/mL
P. aeruginosa ATCC 27853 [1]; ATCC 27853, 18 h
  MIC P. aeruginosa ATCC 27853: 4 µg/mL (≈ 1.16 µM)
P. aeruginosa ATCC 39324; ATCC 39324, 18 h
  MIC P. aeruginosa ATCC 39324: 4 µg/mL (≈ 1.16 µM)

## CC[C@H](C)[C@H](NC(=O)CNC(=O)CNC(=O)CNC(=O)CN)C(=O)NCC(=O)N[C@@H](CCCCN)C(=O)N[C@@H](Cc1ccccc1)C(=O)N[C@@H](CC(C)C)C(=O)N[C@@H](CCCCN)C(=O)N[C@@H](CCCCN)C(=O)N[C@@H](C)C(=O)N[C@@H](CCCCN)C(=O)N[C@@H](CCCCN)C(=O)N[C@@H](Cc1ccccc1)C(=O)NCC(=O)N[C@@H](CCCCN)C(=O)N[C@@H](C)C(=O)N[C@@H](Cc1ccccc1)C(=O)N[C@H](C(=O)N[C@@H](CCCCN)C(=O)N[C@H](C(=O)N[C@@H](CC(C)C)C(=O)N[C@@H](CCCCN)C(=O)N[C@@H](CCCCN)C(=O)O)[C@@H](C)CC)C(C)C [P261] (H-GGGGIGKFLKKAKKFGKAFVKILKK-OH)
293T human cell line; [3]
  Cytotox CC50: 250 µg/mL
P. aeruginosa ATCC 39324; [4]
  MIC P. aeruginosa ATCC 39324: 8 µg/mL (≈ 3.02 µM)
